Laboratory results published in ChEMBL document CHEMBL4265917, “Antibacterial and antioxidant activities for natural and synthetic dual-active compounds” (Eur J Med Chem, 2018).
Converted amounts (≈) assume the structure as drawn.

Assays:
Staphylococcus aureus [1] = test: Antibacterial activity against methicillin-resistant Staphylococcus aureus after 24 hrs by microbroth dilution method; type: functional
[2] = Antioxidant activity assessed as DPPH free radical scavenging activity; type: functional
Staphylococcus aureus [3] = test: Antibacterial activity against Staphylococcus aureus; type: functional
Escherichia coli [4] = test: Antibacterial activity against Escherichia coli; type: functional
[5] = Antioxidant activity assessed as DPPH free radical scavenging activity incubated for 30 mins in dark condition; type: functional
Escherichia coli [6] = test: Antibacterial activity against Escherichia coli K-12 MG1655 assessed as bacterial growth inhibition after 24 hrs by serial dilutoin method; type: functional; conditions: K-12 substr. MG1655, 24 h
[7] = Antioxidant activity assessed as DPPH free radical scavenging activity incubated for 30 min by UV-vis spectrophotometric analysis; type: functional
Staphylococcus aureus [8] = test: Bactericidal activity against Staphylococcus aureus incubated for 24 hrs measured every 30 mins by spectrophotometric analysis; type: functional
Enterococcus faecalis = test: Antibacterial activity against Enterococcus faecalis; type: functional
Escherichia coli [9] = test: Antibacterial activity against Escherichia coli KCTC 1924 after 20 to 36 hrs by disc diffusion method; type: functional
Staphylococcus aureus [10] = test: Antibacterial activity against Staphylococcus aureus KCTC 1916 after 20 to 36 hrs by disc diffusion method; type: functional
Escherichia coli [11] = test: Antibacterial activity against Escherichia coli after 16 hrs by broth microdilution method; type: functional
Staphylococcus aureus [12] = test: Antibacterial activity against Staphylococcus aureus after 16 hrs by broth microdilution method; type: functional
Staphylococcus aureus [13] = test: Antibacterial activity against Staphylococcus aureus after 17 hrs by NCCLS broth microdilution method; type: functional
Bacillus cereus = test: Antibacterial activity against Bacillus cereus after 17 hrs by NCCLS broth microdilution method; type: functional
Bacillus subtilis [14] = test: Antibacterial activity against Bacillus subtilis after 17 hrs by NCCLS broth microdilution method; type: functional
Listeria monocytogenes = test: Antibacterial activity against Listeria monocytogenes after 17 hrs by NCCLS broth microdilution method; type: functional
Escherichia coli [15] = test: Antibacterial activity against Escherichia coli after 17 hrs by NCCLS broth microdilution method; type: functional
Salmonella typhimurium = test: Antibacterial activity against Salmonella typhimurium after 17 hrs by NCCLS broth microdilution method; type: functional, Salmonella enterica subsp. enterica serovar Typhimurium; conditions: Salmonella enterica
Vibrio cholerae = test: Antibacterial activity against Vibrio cholerae after 17 hrs by NCCLS broth microdilution method; type: functional
Campylobacter jejuni = test: Antibacterial activity against Campylobacter jejuni after 17 hrs by NCCLS broth microdilution method; type: functional
Campylobacter coli = test: Antibacterial activity against Campylobacter coli after 17 hrs by NCCLS broth microdilution method; type: functional
Aliarcobacter butzleri = test: Antibacterial activity against Arcobacter butzleri after 17 hrs by NCCLS broth microdilution method; type: functional
[16] = tested on: Aliarcobacter cryaerophilus; test: Antibacterial activity against Arcobacter cryaerophilus after 17 hrs by NCCLS broth microdilution method; type: functional
[17] = Antioxidant activity assessed as trolox equivalent of AAPH-induced radical scavenging activity preincubated for 30 mins followed by […] challenge measured every 1.14 mins for 120 mins by ORAC-FL assay; type: functional
[18] = Antioxidant activity assessed as ABTS radical scavenging activity by measuring trolox equivalence of antioxidant capacity at 1 uM up to 24 hrs by spectrophotometric analysis; type: functional
[19] = Antioxidant activity assessed as reduction of Fe3+-TPTZ to Fe2+-TPTZ by measuring trolox equivalence of antioxidant capacity by FRAP assay; type: functional
Staphylococcus aureus [20] = test: Antibiofilm activity against methicillin-resistant Staphylococcus aureus at 100 ug/ml after 18 hrs by crystal violet staining-based method relative to control; type: functional
Staphylococcus aureus [21] = test: Antibiofilm activity against methicillin-resistant Staphylococcus aureus at 150 ug/ml after 18 hrs by crystal violet staining-based method relative to control; type: functional
Bacillus subtilis [22] = test: Antibacterial activity against Bacillus subtilis ATCC 11562 by colorimetric based broth dilution method; type: functional, organism-based
[23] = tested on: Pseudomonas amygdali pv. lachrymans; test: Antibacterial activity against Pseudomonas syringae pv. lachrymans ATCC 11921 by colorimetric based broth dilution method; type: functional, organism-based
Bacillus mycoides = test: Antibacterial activity against Bacillus mycoides FSB 1 after 18 to 24 hrs by microdilution method; type: functional
Bacillus subtilis [24] = test: Antibacterial activity against Bacillus subtilis FSB 2 after 18 to 24 hrs by microdilution method; type: functional
Micrococcus luteus = test: Antibacterial activity against Micrococcus lysodeikticus ATCC 4698 after 18 to 24 hrs by microdilution method; type: functional
Staphylococcus aureus [25] = test: Antibacterial activity against Staphylococcus aureus ATCC 25923 after 18 to 24 hrs by microdilution method; type: functional
Staphylococcus aureus [26] = test: Antibacterial activity against Staphylococcus aureus FSB 30 after 18 to 24 hrs by microdilution method; type: functional
Azotobacter chroococcum = test: Antibacterial activity against Azotobacter chroococcum FSB 14 after 18 to 24 hrs by microdilution method; type: functional
Enterobacter cloacae = test: Antibacterial activity against Enterobacter cloacae FSB 22 after 18 to 24 hrs by microdilution method; type: functional
[27] = tested on: Pectobacterium carotovorum; test: Antibacterial activity against Erwinia carotovora FSB 31 after 18 to 24 hrs by microdilution method; type: functional
Escherichia coli [28] = test: Antibacterial activity against Escherichia coli ATCC 25922 after 18 to 24 hrs by microdilution method; type: functional
Klebsiella pneumoniae = test: Antibacterial activity against Klebsiella pneumoniae FSB 26 after 18 to 24 hrs by microdilution method; type: functional
Pseudomonas fluorescens = test: Antibacterial activity against Pseudomonas fluorescens FSB 28 after 18 to 24 hrs by microdilution method; type: functional
Pseudomonas syringae = test: Antibacterial activity against Pseudomonas glycinea FSB 40 after 18 to 24 hrs by microdilution method; type: functional, Pseudomonas savastanoi pv. glycinea
[29] = tested on: Pseudomonas savastanoi pv. phaseolicola; test: Antibacterial activity against Pseudomonas phaseolicola FSB 29 after 18 to 24 hrs by microdilution method; type: functional
[30] = Antioxidant activity assessed as DPPH free radical scavenging activity after 30 to 60 mins by UV-vis spectrophotometric analysis; type: functional

COc1cc(/C=C/c2cc(/C=C/c3ccc(OCC(=O)Nc4cccc(C(F)(F)F)c4)c(OC)c3)[nH]n2)ccc1OCC(=O)Nc1cccc(C(F)(F)F)c1
MIC (Staphylococcus aureus [1]): 10 to 20 µg/mL (≈ 13 to 26.1 µM)

COc1cccc2c1OCC(c1nnn(Cc3cn(Cc4ccccc4)nn3)n1)=C2
IC50 [2]: 78.74 µg/mL (≈ 196 µM) | MIC (Staphylococcus aureus [3]): 10.5 µg/mL (≈ 26.2 µM) | MIC (Escherichia coli [4]): 9.5 µg/mL (≈ 23.7 µM)

COc1cc(C2CC(C(=NNc3ccc(C)cc3)C3=NC(=S)NC(c4ccc(O)c(OC)c4)C3)=NC(=S)N2)ccc1O (stereo not given)
IC50 [5]: 0.679 µg/mL (≈ 1.13 µM)

O=C(/C=C/c1ccc(O)c(O)c1)O[C@H](Cc1ccc(O)c(O)c1)C(=O)O [ROSMARINIC ACID]
MIC (Escherichia coli [6]): 250 µg/mL (≈ 694 µM) | IC50 [7]: 0.4 µg/mL (≈ 1.11 µM)

COc1cc(/C=C/c2cc(/C=C/c3ccc(OCC(=O)NC45CC6CC(CC(C6)C4)C5)c(OC)c3)[nH]n2)ccc1OCC(=O)NC12CC3CC(CC(C3)C1)C2
MIC (Staphylococcus aureus [1]): 10 to 20 µg/mL (≈ 13.4 to 26.8 µM)

COc1cc(/C=C/c2cc(/C=C/c3ccc(OCC(=O)Nc4ccc(C)cc4)c(OC)c3)[nH]n2)ccc1OCC(=O)Nc1ccc(C)cc1
MIC (Staphylococcus aureus [1]): 10 to 20 µg/mL (≈ 15.2 to 30.4 µM)

COc1ccccc1O [GUAIACOL]
MBC (Staphylococcus aureus [8]): ≥ 15 mM | IC50 [2]: 4.1 µg/mL (≈ 33 µM)

O=C(/C=C/c1ccc(O)c(O)c1)O[C@@H]1C[C@](O)(C(=O)O)C[C@@H](O)[C@H]1O [CHLOROGENIC ACID]
EC50 [2]: 13.8 µg/mL (≈ 38.9 µM) | MIC (Staphylococcus aureus [3]): 32 to 128 µg/mL (≈ 90.3 to 361 µM) | MIC (Enterococcus faecalis): 32 to 128 µg/mL (≈ 90.3 to 361 µM)

COc1cc(/C=C/c2cc(/C=C/c3ccc(OCC(=O)Nc4cccc(C(C)=O)c4)c(OC)c3)[nH]n2)ccc1OCC(=O)Nc1cccc(C(C)=O)c1
MIC (Staphylococcus aureus [1]): 10 to 20 µg/mL (≈ 14 to 28 µM)

Oc1ccc2cc(Br)ccc2c1-c1c[nH]c2ccccc12
EC50 [7]: 3.8 µg/mL (≈ 11.2 µM) | MIC (Escherichia coli [9]): 5.32 µg/mL (≈ 15.7 µM) | MIC (Staphylococcus aureus [10]): 14.8 µg/mL (≈ 43.8 µM)

Cc1ccc(C(C)C)c(O)c1 [THYMOL]
MIC (Escherichia coli [11]): 2.5 µg/mL (≈ 16.6 µM) | MIC (Staphylococcus aureus [12]): 2.5 µg/mL (≈ 16.6 µM)

Oc1ccc(/C=C/c2cc(O)cc(O)c2)cc1 [RESVERATROL]
MIC (Staphylococcus aureus [13]): 16.5 to 260 µg/mL (≈ 72.3 to 1140 µM) | MIC (Bacillus cereus): 16.5 to 260 µg/mL (≈ 72.3 to 1140 µM) | MIC (Bacillus subtilis [14]): 16.5 to 260 µg/mL (≈ 72.3 to 1140 µM) | MIC (Listeria monocytogenes): 16.5 to 260 µg/mL (≈ 72.3 to 1140 µM) | MIC (Escherichia coli [15]): 0.625 to 521 µg/mL (≈ 2.74 to 2280 µM) | MIC (Salmonella typhimurium): 0.625 to 521 µg/mL (≈ 2.74 to 2280 µM) | MIC (Vibrio cholerae): 0.625 to 521 µg/mL (≈ 2.74 to 2280 µM) | MIC (Campylobacter jejuni): 0.625 to 521 µg/mL (≈ 2.74 to 2280 µM) | MIC (Campylobacter coli): 0.625 to 521 µg/mL (≈ 2.74 to 2280 µM) | MIC (Aliarcobacter butzleri): 0.625 to 521 µg/mL (≈ 2.74 to 2280 µM) | MIC [16]: 0.625 to 521 µg/mL (≈ 2.74 to 2280 µM) | Activity [17]: 3.67 mM | Activity [18]: 1.57 mM | Activity [19]: 0.47 mM | inhibition at 100 µg/mL (Staphylococcus aureus [20]): 39.9% | inhibition at 150 µg/mL (Staphylococcus aureus [21]): 23.4%

COc1cc(O)c2c(=O)oc3c(O)c(O)cc(C)c3c2c1
EC50 [5]: 68.3 µM | IC50 (Bacillus subtilis [22]): 29 µM | IC50 [23]: 7 µM

Cc1ccc(NC(C)c2c(O)c3ccccc3oc2=O)cc1 (stereo not given)
MIC (Bacillus mycoides): 3.9 to 7.8 µg/mL (≈ 13.2 to 26.4 µM) | MIC (Bacillus subtilis [24]): 3.9 to 7.8 µg/mL (≈ 13.2 to 26.4 µM) | MIC (Micrococcus luteus): 3.9 to 7.8 µg/mL (≈ 13.2 to 26.4 µM) | MIC (Staphylococcus aureus [25]): 3.9 to 7.8 µg/mL (≈ 13.2 to 26.4 µM) | MIC (Staphylococcus aureus [26]): 3.9 to 7.8 µg/mL (≈ 13.2 to 26.4 µM) | MIC (Azotobacter chroococcum): 3.9 to 7.8 µg/mL (≈ 13.2 to 26.4 µM) | MIC (Enterobacter cloacae): 3.9 to 7.8 µg/mL (≈ 13.2 to 26.4 µM) | MIC [27]: 3.9 to 7.8 µg/mL (≈ 13.2 to 26.4 µM) | MIC (Escherichia coli [28]): 3.9 to 7.8 µg/mL (≈ 13.2 to 26.4 µM) | MIC (Klebsiella pneumoniae): 3.9 to 7.8 µg/mL (≈ 13.2 to 26.4 µM) | MIC (Pseudomonas fluorescens): 3.9 to 7.8 µg/mL (≈ 13.2 to 26.4 µM) | MIC (Pseudomonas syringae): 3.9 to 7.8 µg/mL (≈ 13.2 to 26.4 µM) | MIC [29]: 3.9 to 7.8 µg/mL (≈ 13.2 to 26.4 µM) | IC50 [30]: 94 µM

O=C(/C=C/c1ccc(O)c(O)c1)O[C@@H]1C[C@@](O)(C(=O)O)C[C@@H](O)[C@@H]1O
EC50 [2]: 13.4 µg/mL (≈ 37.8 µM)

COc1cc(/C=C/c2cc(/C=C/c3ccc(OCC(=O)Nc4ccc(F)cc4)c(OC)c3)[nH]n2)ccc1OCC(=O)Nc1ccc(F)cc1
MIC (Staphylococcus aureus [1]): 10 to 20 µg/mL (≈ 15 to 30 µM)
